Reference: ChEMBL document CHEMBL1151154, “Potential inhibitors of platelet aggregation from plant sources, V. Anthraquinones from seeds of Cassia obtusifolia and related compounds” (1990)

Key:
Assay type in all cases: functional
[1] = Antiplatelet activity in rat platelet rich plasma assessed as drug level causing inhibition of arachidonic acid-stimulated platelet aggregation pretreated 2 mins before arachidonic acid challenge
[2] = Antiplatelet activity in rat platelet rich plasma assessed as drug level causing inhibition of ADP-stimulated platelet aggregation pretreated 2 mins before ADP challenge
[3] = Antiplatelet activity in rat platelet rich plasma assessed as drug level causing inhibition of collagen-stimulated platelet aggregation pretreated 2 mins before collagen challenge

Row | Structure (SMILES) | Activity [1] | Activity [2] | Activity [3]
1 | Cc1cc(O)c2c(c1)Cc1cccc(O)c1C2=O | >0.25 mg/mL | >0.25 mg/mL | >0.25 mg/mL
2 | COc1c(O[C@@H]2O[C@H](CO)[C@@H](O)[C@H](O)[C@H]2O)cc2c(c1O)C(=O)c1c(cc(C)c(O)c1OC)C2=O | 0.05 mg/mL | 0.05 mg/mL | 0.1 mg/mL
3 | COc1cc2c(c(OC)c1OC)C(=O)c1c(cc(C)c(O[C@@H]3O[C@H](CO)[C@@H](O)[C@H](O)[C@H]3O)c1OC)C2=O | 0.025 mg/mL | 0.025 mg/mL | 0.05 mg/mL
4 | COc1c(O[C@@H]2O[C@H](CO)[C@@H](O)[C@H](O)[C@H]2O)c(C)cc2c1C(=O)c1c(O)cccc1C2=O | 0.05 mg/mL | 0.25 mg/mL | 0.1 mg/mL
5 | O=C1c2cccc(O)c2C(=O)c2c(O)cc(CO)cc21 [ALOE-EMODIN] | 0.25 mg/mL | >0.25 mg/mL | 0.25 mg/mL
6 | O=C1c2ccc(O)cc2C(=O)c2ccc(O)cc21 [ANTHRAFLAVICACID] | >0.25 mg/mL | >0.25 mg/mL | >0.25 mg/mL
7 | O=C1c2ccccc2C(=O)c2c1ccc(O)c2O [ATHRAQUINONES A] | >0.25 mg/mL | >0.25 mg/mL | >0.25 mg/mL
8 | COc1c(O)cc2c(c1O)C(=O)c1c(cc(C)c(O)c1OC)C2=O [AURANTIOOBTUSIN] | >0.25 mg/mL | >0.25 mg/mL | >0.25 mg/mL
9 | COc1cc2c(c(OC)c1OC)C(=O)c1c(cc(C)c(O)c1OC)C2=O [CHRYSOOBTUSIN] | 0.25 mg/mL | 0.25 mg/mL | 0.25 mg/mL
10 | Cc1cc(O)c2c(c1)C(=O)c1cccc(O)c1C2=O [CHRYSOPHANOL] | >0.25 mg/mL | >0.25 mg/mL | >0.25 mg/mL
11 | O=C1c2cccc(O)c2C(=O)c2c(O)cccc21 [DANTHRON] | >0.25 mg/mL | >0.25 mg/mL | >0.25 mg/mL
12 | Cc1cc(O)c2c(c1)C(=O)c1cc(O)cc(O)c1C2=O [EMODIN] | >0.25 mg/mL | >0.25 mg/mL | >0.25 mg/mL
13 | COc1c(O)c(C)cc2c1C(=O)c1c(O)cccc1C2=O [OBTUSIFOLIN] | 0.25 mg/mL | >0.25 mg/mL | 0.25 mg/mL
14 | COc1cc(O)c2c(c1)C(=O)c1cc(C)cc(O)c1C2=O [PHYSCION] | 0.25 mg/mL | 0.25 mg/mL | >0.25 mg/mL
15 | O=C1c2ccccc2C(=O)c2c(O)ccc(O)c21 [QUINIZARIN] | >0.25 mg/mL | >0.25 mg/mL | >0.25 mg/mL
16 | O=C(O)c1cc(O)c2c(c1)C(=O)c1cccc(O)c1C2=O [RHEIN] | 0.25 mg/mL | 0.25 mg/mL | 0.25 mg/mL
